Patent US20060147520A1, “Treatment of pulmonary hypertension by inhaled iloprost with a microparticle formulation” (priority 2004, published 2006)
Read-outs that look alike come from different tables or passages of the source. Values belong to the compound of their own block, whether it stands above or below them.

Columns and labels:
[1] = system: PAH; settings: oral; cited from earlier work
[2] = system: men with ED; settings: cited from earlier work
[3] = system: men with mild-to-severe ED; settings: cited from earlier work
[4] = hydrophobicity scale of amino acids; format: physicochemical; settings: scale on which glycine has the value 0.5
Text: Hydrophobicity is generally defined with respect to the partition of an amino acid between a nonpolar solvent and water. Hydrophobic amino acids are those acids which show a preference for the nonpolar solvent. Relative hydrophobicity of amino acids can be expressed on a hydrophobicity scale on which glycine has the value 0.5. On such a scale, amino acids which have a preference for water have values below 0.5 and those that have a preference for nonpolar solvents have a value above 0.5. As used herein, the term hydrophobic amino acid refers to an amino acid that, on the hydrophobicity scale has a value greater or equal to 0.5, in other words, has a tendency to partition in the […] which is at least equal to that of glycine.
A mixture including 40 weight % of an amino acid and 60 weight % DPPC is formed in a 70/30 vol/vol ethanol-water co-solvent and spray-dried and the geometric aerodynamic diameters for the particles are determined. In addition, the hydrophobicity and tap density may also be determined. Tap density may be determined using the equation provided above.

[5] = system: erectile dysfunction (ED); settings: in vivo; cited from earlier work
[6] = glass stability of derivatized carbohydrates immersed in aqueous medium; format: physicochemical; settings: THEX: saline medium at 37° C.; lactose derivative: water
[7] = system: African Green monkey kidney-derived cell line Vero; assay: toxicity of HDC glasses in vitro; format: cell-based; settings: week of culture
Experimental: A saturated solution of TOAC in deionized distilled water (0.42 g in 20 mls) is tested for toxicity in vitro using the African Green monkey kidney-derived cell line Vero, in either a 10-fold serial dilution or by adding the TOAC powder directly to the tissue culture medium.

[8] = system: pulmonary hypertension; settings: cited from earlier work
[9] = system: patients with severe PAH; settings: versus placebo; cited from earlier work
[10] = system: patients with pulmonary hypertension; settings: administered by aerosolization; cited from earlier work
[11] = system: pulmonary hypertension; settings: in vivo; cited from earlier work
[12] = dissolution of HDC glass discs in water; format: physicochemical

SMILES: CC#CCC(C)[C@H](O)/C=C/[C@@H]1[C@H]2c3cccc(CCCC(=O)O)c3O[C@H]2C[C@H]1O (mixture of isomers) [Beraprost]
- benefit in PAH [1]: benefit in a study in PAH at 3 and 6 months but not at 9 or 12 months

SMILES: CN1CC(=O)N2[C@H](c3ccc4c(c3)OCO4)c3[nH]c4ccccc4c3C[C@@H]2C1=O [Cialis, tadalafil]
- most commonly reported treatment-emergent adverse effects ([2]; 10 mg, increased to 20 mg, at least one year): headache and upset stomach
- discontinuation rate for any individual adverse event ([2]; in vivo): less than 1%
- patients who discontinued the study due to side effects ([2]; in vivo): Five
- most commonly reported treatment-emergent adverse effects ([3]; greater than or equal to 5 percent): headache, back pain, and upset stomach
- patients who discontinued the study because of adverse events ([3]; in vivo): 5%

- hydrophobicity [4]: 0.043
SMILES: N[C@@H](CCC(=O)O)C(=O)O [Glutamate]

- hydrophobicity [4]: 0.943
SMILES: CC[C@H](C)[C@H](N)C(=O)O [Isoleucine]

SMILES: CCCc1nc(C)c2c(=O)[nH]c(-c3cc(S(=O)(=O)N4CCN(CC)CC4)ccc3OCC)nn12 [Levitra, vardenafil HC1]
- most commonly reported side effects [5]: headache, flushing, and stuffy or runny nose

- hydrophobicity [4]: 0.501
SMILES: N[C@@H](Cc1ccccc1)C(=O)O [Phenylalanine]

- stability of the glassy state when immersed [6]: stable in the glassy state
SMILES: CC(C)(C)CC(=O)O[C@@H]1[C@@H](OC(=O)CC(C)(C)C)[C@@H](O[C@H]2O[C@H](CO)[C@@H](OC(=O)CC(C)(C)C)[C@H](OC(=O)CC(C)(C)C)[C@H]2OC(=O)CC(C)(C)C)O[C@H](CO)[C@H]1OC(=O)CC(C)(C)C [THEX, Trehalose hexa-3,3-dimethylbutyrate]

SMILES: CC(=O)OCC1OC(OC2OC(COC(C)=O)C(OC(C)=O)C(OC(C)=O)C2OC(C)=O)C(OC(C)=O)C(OC(C)=O)C1OC(C)=O (centres unmarked) [TOAC, trehalose octaacetate]
- toxicity in vitro ([7]; saturated solution in water (0.42 g in 20 mls), 10-fold serial dilution or powder added to the medium): No toxic effects
- cell division [7]: normal

SMILES: COc1ccccc1Oc1c(NS(=O)(=O)c2ccc(C(C)(C)C)cc2)nc(-c2ncccn2)nc1OCCO [bosentan]
- liver toxicity ([8]; higher dose): liver toxicity occurred
- six minute walk test ([8]; whole group): improved

SMILES: CC#CCC(C)[C@H](O)/C=C/[C@@H]1[C@H]2C/C(=C/CCCC(=O)O)C[C@H]2C[C@H]1O (some centres unmarked) [iloprost]
- exercise capacity [9]: improved exercise capacity

- stability of the glassy state when immersed [6]: very stable in the glassy state
SMILES: CC(=O)OC[C@H]1O[C@@H](O[C@H]2[C@H](OC(C)=O)[C@@H](OC(C)=O)C(OC(=O)C(C)C)O[C@@H]2COC(C)=O)[C@H](OC(C)=O)[C@@H](OC(C)=O)[C@H]1OC(C)=O (some centres unmarked) [lactose isobutyrate heptaacetate]

SMILES: CCCCC[C@H](O)/C=C/[C@@H]1[C@H]2C/C(=C/CCCC(=O)O)O[C@H]2C[C@H]1O [prostacyclin]
- duration of effects [10]: 15 min

SMILES: Cc1cc2c(cc1CC(=O)c1sccc1S(=O)(=O)Nc1onc(C)c1Cl)OCO2 [sitaxsentan]
- decrease in pulmonary vascular resistance [11]: 30%
- six minute walk test [11]: improvement

- loss of original weight ([12]; disc in 1 l of water replaced daily, 7 days): 20%
SMILES: CC(=O)OC[C@H]1O[C@H](OC(C)=O)[C@H](OC(C)=O)[C@@H](OC(C)=O)[C@@H]1OC(C)=O [α-D-glucose pentaacetate]

- solubility of the glass in water [12]: poorly soluble in water
- loss of original weight ([12]; disc 20 mm diameter, 2.5 mm thick, flowing water, 10 days): about 33%
SMILES: CC(=O)OC[C@H]1O[C@@H](OC(C)=O)[C@H](OC(C)=O)[C@@H](OC(C)=O)[C@@H]1OC(C)=O [β-D-glucose pentaacetate]
